# pIC50: −log10 of the molar value.
# Tests used:
# [1] = tested on: Pancreatic cancer (AsPC-1) cells; test: Xenograft model, subcutaneous ADP-ribose, tumor volume; assay type: in vivo, BALB/c nude mice; details: AsPC-1 xenograft, 3 times a week, control about 2155.8
# Protocol: Pancreatic cancer (AsPC-1) or kidney cancer (Caki-1) cells (1×10^7 cells) were inoculated into 5-week-old BALB/c nude mice on the back flank, and the mice were grown up to approximately 150 mm^3 of the tumor volume. Then, three concentrations of ADP-ribose were administered subcutaneously, intravenously, and orally 3 times a week. The tumor size was measured every 6 days using a digital caliper, and the changes in tumor volume were compared for each group.
# Pancreatic cancer (AsPC-1) cells (1×10^7) were inoculated into 5-week-old BALB/c nude mice on the back flank, and the mice were divided into four groups: the control group (Control) and groups injected subcutaneously with 2, 20, and 40 mg/kg of ADP-ribose. When the tumors were grown to a volume of approximately 150 mm^3, each concentration of ADP-ribose was subcutaneously injected 3 times a week. The tumor size was measured using a digital caliper, and the results of changes in tumor volume were compared by the group.
# MDA-MB-231 cells [2] = test: Cell death by combination treatment of ADP-ribose and radiation (MTT); assay type: cell-based; details: MDA-MB-231, 16 μM ADP-ribose in combination with 2 Gy radiation, 24 hours, P<0.001; 2 Gy alone about 90.6%
# Protocol: 3×10^3 Brain cancer (U-87MG), lung cancer (H1975), pancreatic cancer (Aspc-1), liver cancer (Hep G2), breast cancer (MDA-MB-231), colon cancer (HCT116), and kidney cancer (Caki-1) cells were cultured in a 96-well plate for 24 hours under conditions of 37° C. and 5% CO2, treated with ADP-ribose or 2 or 5 Gy radiation alone or in combination with ADP-ribose and 2 Gy radiation, and cultured for 24 hours under conditions of 37° C. and 5% CO2 again. Then, 10 μl of 3-(4,5-dimethylthiazol-2-yl)-2,5-diphenyltetrazolium bromide reagent was added to each well and reacted for 1 hour. After the reaction was completed, the reagent was removed, 200 μl of dimethyl sulfoxide was added to each well, and the absorbance was measured to compare the degree of cell death.
# 3×10^3 MDA-MB-231 cells were cultured in a 96-well plate for 24 hours under conditions of 37° C. and 5% CO2, treated with 16 μM of ADP-ribose and 2 or 5 Gy dose of radiation individually or in combination, and cultured for 24 hours under conditions of 37° C. and 5% CO2 again. Then, 10 μl of 3-(4,5-dimethylthiazol-2-yl)-2,5-diphenyltetrazolium bromide reagent was added to each well and reacted for 1 hour. After the reaction was completed, the reagent was removed, 200 μl of dimethyl sulfoxide was added to each well, and the absorbance was measured to confirm cell viability.
# Hep G2 cells = test: Cancer cell death verification (MTT cell viability); assay type: cell-based
# Protocol: (§1) 3×10^3 Brain cancer (U-87MG), lung cancer (H1975), pancreatic cancer (Aspc-1), liver cancer (Hep G2), breast cancer (MDA-MB-231), colon cancer (HCT116), kidney cancer (Caki-1), gastric cancer (SNU-1) and ovarian cancer (OVCAR-3) cells were cultured in a 96-well plate under conditions of 37° C. and 5% CO2 for 24 hours, and then each cancer cell was treated with ADP-ribose at each concentration. After culturing for 24 hours under conditions of 37° C. and 5% CO2 again, 10 μl of 3-(4,5-dimethylthiazol-2-yl)-2,5-diphenyltetrazolium bromide reagent was added to each well and reacted for 1 hour. After the reaction was completed, the reagent was removed, 200 μl of dimethyl sulfoxide was added to each well, and the absorbance was measured to determine the concentration of half-lethality and maximum lethality compared to untreated cells.
# 3×10^3 Hep G2 cells were cultured in a 96-well plate for 24 hours under conditions of 37° C. and 5% CO2, treated with ADP-ribose at concentrations of 0.125, 0.25, 0.5, 1, 2, 4, 8, 16, and 32 μM, respectively, and cultured again for 24 hours under conditions of 37° C. and 5% CO2. Then, 10 μl of 3-(4,5-dimethylthiazol-2-yl)-2,5-diphenyltetrazolium bromide reagent was added to each well and reacted for 1 hour. After the reaction was completed, the reagent was removed, 200 μl of dimethyl sulfoxide was added to each well, and the absorbance was measured to confirm cell viability.
# OVCAR-3 cells = test: as above; assay type: cell-based; details: OVCAR-3, 32 μM ADP-ribose, 24 hours
# Protocol: 3×10^3 SNU-1 or OVCAR-3 cells were cultured in a 96-well plate for 24 hours under conditions of 37° C. and 5% CO2, treated with ADP-ribose at concentrations of 32 μM, respectively, and cultured again for 24 hours under conditions of 37° C. and 5% CO2. Then, 10 μl of 3-(4,5-dimethylthiazol-2-yl)-2,5-diphenyltetrazolium bromide reagent was added to each well and reacted for 1 hour. After the reaction was completed, the reagent was removed, 200 μl of dimethyl sulfoxide was added to each well, and the absorbance was measured to confirm cell viability.
# MDA-MB-231 cells [3] = test: ADP-ribose quantitative analysis (ELISA) in cancer cells; assay type: cell-based; details: 16 μM ADP-ribose, 24 hours, P<0.001
# Protocol: After culturing, the culture medium was removed, the cells were washed with phosphate-buffered saline, and then RIPA buffer was added and the cells were left on ice for 20 minutes. After scraping the cells, the cells were put in a centrifuge tube and centrifuged for 10 minutes at 10,000 g and 4° C. The supernatant was obtained, and 1% SDS was added, and then the reaction product was boiled at 100° C. for 5 minutes and cooled on ice. The supernatant was centrifuged again at 10,000 g and 4° C. for 10 minutes to obtain the final supernatant, and ADP-ribose was quantitatively analyzed and compared using an ELISA analysis kit (Cell Biolabs, Inc., San Diego, CA, USA).
# 5×10^5 MDA-MB-231 cells were divided into the untreated group and 16 μM ADP-ribose-treated group and cultured in Leibovitz's L-15 medium supplemented with 10% fetal calf serum+100 units/ml penicillin+100 μg/ml streptomycin under conditions of 37° C. and 5% CO2 for 24 hours. The medium of the cultured cells was removed, and the supernatant prepared by treatment with RIPA buffer and 1% sodium dodecyl sulfate (SDS) was used for ELISA analysis to detect and analyze ADP-ribose.
# MDA-MB-231 cells [4] = test: Cancer cell death verification (MTT cell viability); assay type: cell-based
# [5] = tested on: Brain cancer (U-87MG) cells; test: Xenograft model, combination with radiation, tumor volume; assay type: in vivo, BALB/c nude mice; details: U-87MG xenograft
# Protocol: Brain cancer (U-87MG), pancreatic cancer (AsPC-1), breast cancer (MDA-MB-231), or kidney cancer (Caki-1) cells (1×10^7 cells) were inoculated into 5-week-old BALB/c nude mice on the back flank, respectively. Then, when tumors were grown to a volume of approximately 150 mm^3, the mice were divided into three groups: the control group (Control), 2 Gy dose of radiation alone, and a combination administration of 2 Gy dose of radiation+10 mg/kg of ADP-ribose (subcutaneous administration, 3 times a week). The irradiation was performed with an X-Rad 320 irradiator (Precision X-ray, North Branford, CT, USA), wherein the mice were placed by maintaining an appropriate distance from the radiation source for irradiation with a predetermined radiation dose. A lead shield was used to protect the body parts or organs from exposure to radiation, other than the cancerous part of the mouse. The irradiation was performed with a total of 2 Gy of radiation fractionated into two doses of 1 Gy each (for 2 days) at a dose rate of 300 kVp and 150 cGy/min using an X-ray beam filter composed of 12.5 mA and 2.0 mm Al. The tumor size was measured every 6 days using a digital caliper, and the results of changes in tumor volume were compared by the group.
# Brain cancer (U-87MG) cells (1×10^7) were inoculated into 5-week-old BALB/c nude mice on the back flank, and the mice were divided into three groups: the control group, 2 Gy dose of radiation alone, and combination administration of 2 Gy dose radiation+10 mg/kg of ADP-ribose. When the tumors were grown to a volume of approximately 150 mm^3, 2 Gy dose of radiation was irradiated twice at 1 Gy each, and 10 mg/kg of ADP-ribose was injected subcutaneously 3 times a week. The tumor size was measured using a digital caliper, and the results of changes in tumor volume were compared by the group.
# Caki-1 cells = test: Cancer cell death verification (MTT cell viability); assay type: cell-based
# Protocol: as §1
# Then, 10 μl of 3-(4,5-dimethylthiazol-2-yl)-2,5-diphenyltetrazolium bromide reagent was added to each well and reacted for 1 hour. After the reaction was completed, the reagent was removed, 200 μl of dimethyl sulfoxide was added to each well, and the absorbance was measured to confirm cell viability.
# [6] = tested on: Brain cancer (U-87MG) cells; test: Cell death by combination treatment with anti-cancer drug (MTT); assay type: cell-based; details: Homo sapiens, ADP-ribose 1.6 μM in combination with bevacizumab, 24 hours, P<0.001
# [7] = tested on: Lung cancer (H1975) cells; test: as above; assay type: cell-based; details: Homo sapiens, NCI-H1975; H1975, ADP-ribose 1.6 μM in combination with osimertinib 1 nM, 24 hours, P<0.001
# [8] = ADP-ribose 10 mg/kg s.c. + 2 Gy radiation, P<0.001
smiles,measurement,setting,value
"Nc1ncnc2c1ncn2[C@@H]1O[C@H](COP(=O)(O)OP(=O)(O)OC[C@H]2O[C@@H](O)C(O)C2O)C(O)C1O (some centres unmarked) [ADP-ribose, adenosine diphosphate ribose]",final tumor volume,[1]; 2 mg/kg subcutaneous,1015.8 mm^3
same,final tumor volume,[1]; 20 mg/kg subcutaneous,496.6 mm^3
same,final tumor volume,[1]; 40 mg/kg subcutaneous,336.2 mm^3
same,survival rate of cancer cells,MDA-MB-231 cells [2],about 11.3%
same,maximum lethal dose (concentration at which almost all cells were killed),"Hep G2 cells; Hep G2, 24 hours, MTT",32 µM
same,cancer cell growth under a microscope,"Hep G2 cells; Hep G2, ADP-ribose treated vs control, FIG. 5A",inhibited from growing and killed
same,pIC50,"Hep G2 cells; Homo sapiens, HepG2, 24 h, read-out: half-lethal dose (concentration at which about half of the cells were killed)",~5.40
same,cell death compared to the control group,OVCAR-3 cells,killed significantly
same,amount of ADP-ribose in cells compared to the control group,MDA-MB-231 cells [3],remarkably increased significantly
same,pIC50,"MDA-MB-231 cells [4]; Homo sapiens, MDA-MB-231, 24 h, read-out: half-lethal dose (concentration at which about half of the cells were killed)",~4.80
same,maximum lethal dose (concentration at which almost all cells were killed),"MDA-MB-231 cells [4]; MDA-MB-231, 24 hours, MTT",32 µM
same,cancer cell growth under a microscope,"MDA-MB-231 cells [4]; MDA-MB-231, ADP-ribose treated vs control, FIG. 6A",inhibited from growing and killed
same,reduction of tumor volume compared to the control group,[5]; [8],about 71.5%
same,reduction of tumor volume compared to the group treated with 2 Gy dose of radiation alone,[5]; [8],about 50.7%
same,final tumor volume,"[5]; ADP-ribose 10 mg/kg subcutaneous 3 times a week + 2 Gy radiation, control about 2545.2, 2 Gy alone about 1472.1",about 725.2 mm^3
same,maximum lethal dose (concentration at which almost all cells were killed),"Caki-1 cells; Caki-1, 24 hours, MTT",32 µM
same,cancer cell growth under a microscope,"Caki-1 cells; Caki-1, ADP-ribose treated vs control, FIG. 8A",inhibited from growing and killed
same,pIC50,"Caki-1 cells; Homo sapiens, CAKI-1, 24 h, read-out: half-lethal dose (concentration at which about half of the cells were killed)",~4.80
same,viability at 1.6 µM,[6],~18%
same,viability at 1.6 µM,[7],~0.9%
